“Also recorded” adds a separate entry of the source.
Legend:
[1] = test system: P. berghei GFP ANKA malaria strain PbGFPCON; test: Dose-response efficacy in the P. berghei malaria mouse model; assay type: in vivo, female NMRI mice; conditions: single oral doses 2.5 to 100 mg/kg
Text: All in vivo studies conducted at the Swiss Tropical and Public Health Institute (TPH) adhered to local and national regulations of laboratory animal welfare in Switzerland (permission no. 1731). For in vivo efficacy, female (specific-pathogen-free) […] (NMRI) mice were obtained from Janvier, Le Genest-Saint-Isle, France. Only mice without visible signs of disease were used for the study. Standard laboratory conditions were adopted for husbandry. In vivo antimalarial activity was assessed using groups of five female NMRI mice (20 to 22 g) intravenously infected on day zero with 2 × 10^7 erythrocytes parasitized with P. berghei GFP ANKA malaria strain PbGFPCON (a donation from A. P. Waters and C. J. Janse, Leiden University) ([39]). Untreated control mice typically died between day six and day seven postinfection. Experimental compounds were formulated in 10% ethanol, 30% PEG 400, and 60% of 10% vitamin E TPGS and were administered orally in a volume of 10 ml/kg. Dose-response efficacy studies were conducted for each spiroindolone analog. Doses of 2.5, 5, 10, 30, and 100 mg/kg were administered to groups of 5 mice each as a single dose at 24 h postinfection. Parasitemia, expressed as parasitized red blood cells (pRBCs) of >100 RBCs, was determined 72 h postinfection using standard flow cytometry techniques ([39]).
Data analysis was done using nonlinear mixed-effect modeling (NONMEM version VI 2.0), which analyzed the PD data from multiple dose groups obtained simultaneously from different experiments. Within NONMEM, first-order conditional estimation (FOCE) was the method used ([40]). The log-transformed dose and level of parasitemia were used for analysis. For each compound, a dose-response model was built, and the ED90 (effective dose lowering 90% of parasitemia) values were determined using equation 1 ([41]), where P is the parasitemia measured at any given dose, Pmax is the maximum level of parasitemia, Pmin is the minimum level of parasitemia, EZ50 is the dose required to produce 50% of the maximal effect, s is the Hill slope describing the steepness of the curve, and x is the dose (in mg/kg). 1 P=Pmin +{[Pmax−Pmin]/[1+10^(logEZ50−log x)×s]}

[2] = In vivo PK after single p.o. and i.v. dosing in CD-1 mice; design: species or system female CD-1 mice; conditions: CD-1 mice; for CL / Vss / t1/2 (i.v.): i.v. 5 mg/kg; for F (oral bioavailability): oral 25 mg/kg vs i.v. 5 mg/kg; for AUC0–24 / Tmax / t1/2 (oral) / Cmax: single oral dose 25 mg/kg; for Cmax: plasma
Protocol: The Institutional Animal Care and Use Committee (IACUC) of the Novartis Institute for Tropical Diseases (NITD), registered with the Agri-Food and Veterinary authority (AVA), Government of Singapore, reviewed and approved all animal experimental protocols. […] The mice were allowed to acclimate before the initiation of the experiments. Feed and water were given ad libitum. […] The blood samples from the mice were collected at 0.02 (for i.v. only), 0.08, 0.25, 0.5, 1, 2, 4, 8, 16, and 24 h postdosing. The dose proportionality studies were conducted with KAE609. […] Additional samples were collected at 32 h and 48 h postdose for the 1- and 5-mg/kg dose groups and up to 72 h postdose for the 100-mg/kg dose group. Groups of three mice were used for each time point. Blood was centrifuged at 13,000 rpm for 7 min at 4°C, and plasma was harvested and stored at -20°C until analysis. […] After vortexing and centrifuging the mixture, the supernatant was removed and 5 μl of sample analyzed. Analyte quantitation was performed by high-performance liquid chromatography coupled with tandem mass spectrometry (LC-MS/MS). […] Instrument control and data acquisition were performed using the Applied Biosystems software Analyst 1.4.2. […] Multiple-reaction monitoring (MRM) was combined with optimized MS parameters to maximize detection specificity and sensitivity. The most intense MRM transitions [338.3/295.1 for (+)-1, 370.1/327.0 for (+)-2, 370.0/326.9 for (+)-3, 354.1/310.8 for (+)-4, 354.1/311.2 for (+)-5, 372.1/329.1 for (+)-6, 388.0/331.8 for (+)-7, 372.1/316.1 for (-)-6, and 388/332 for (-)-7] were used for quantitation. Most compounds were analyzed using electrospray ionization in the negative mode, except (+)-1, which was analyzed using positive mode. The recovery of the compounds from plasma was good and consistent across the concentration range studied. The lower limits of quantification for different compounds ranged from 1.3 to 70 ng/ml in plasma. A calibration curve was freshly prepared and analyzed with every set of study samples. Intraday variability was established with triplicate quality control samples at three concentration levels. The results were accepted if relative standard deviation was <15%. The mean values of the compound concentrations in plasma were obtained from three animals at each time point and plotted against time to generate concentration-time profiles. […] The oral bioavailability (F) was calculated as the ratio between the area under the concentration-time curve from 0 to infinity (AUC0-∞) following oral administration and the AUC0-∞ following intravenous administration corrected for dose (F = […].).

[3] = Mouse plasma protein binding, rapid equilibrium dialysis; assay type: in vitro ADME
Text: (§1) page 5: Running title: PreclinicalPK -PD of antimalarials 73 to high through put form at using in- house standard assa y protocols that are described in the 74 literature. 75 (a)HT-Equilibrium solubilit y at pH 6.8( 1); (b)Parallel Artificial Membrane P ermeability Assa y 76 expressed in % fraction absorbed (FA) ( 2,3 ); (c)Apparent permeability from apical to […] 78 tested; (d)intrinsic clearance in mouse liver micro somes ex pressed as µ L/ min/mg protein, in 79 the presen ce of liver enzym es ( 6); (e)Mous e plasm a protein binding using rapid equilibrium […] 81 82 83 84 85 86 87 88 89 90 91 92 93 94 95 96 97 98 5

Caco-2 cells = test: Caco-2 permeability; assay type: in vitro ADME; conditions: apical to basolateral
Text: as §1

Row | Compound | Efficacy in the P. berghei mouse model [1] | CL [2] [mL/min/kg] | Vss [2] [L/kg] | t1/2 (i.v.) [2] [h] | F (oral bioavailability) [2] [%] | AUC0–24 [2] [ng·h/mL] | Tmax [2] [h] | t1/2 (oral) [2] [h] | Cmax [2] [ng/mL] | Mouse PPB [3] [%] | Caco-2 Papp (A-B) (Caco-2 cells)
1 | C[C@@H]1Cc2c([nH]c3cc(F)c(F)cc23)[C@]2(N1)C(=O)Nc1ccc(Cl)cc12 [(−)-6] | no efficacy; also recorded: poor efficacy regardless of dose | 4.2 | 2.8 | 13.2 | 78 | 68200 | 2 | 7.9 | 5000 | 99.6 | 4.8 10-6 cm/sec
2 | C[C@@H]1Cc2c([nH]c3cc(Cl)c(F)cc23)[C@]2(N1)C(=O)Nc1ccc(Cl)cc12 [(−)-7] | no efficacy; also recorded: poor efficacy regardless of dose | 2.6 | 1.3 | 5.6 | 92 | 107300 | 1 | 9.1 | 8300 | 99.4 | 1.73 10-6 cm/sec

— publication PMC4335872, “Pharmacokinetic-Pharmacodynamic Analysis of Spiroindolone Analogs and KAE609 in a Murine Malaria Model” (Antimicrobial Agents and Chemotherapy, 2015)
